# Experimental data taken from US9346797B1, “2-amino 6-(difluoromethyl)-5,5-difluoro-6-phenyl-3,4,5,6-tetrahydropyridines as BACE1 inhibitors” (H. Lundbeck A/S, priority 2014, dated 2016).
# Read-outs that look alike come from different tables or passages of the source.
# How the values were obtained:
# [1] = target: human BACE1 (Homo sapiens (Human), UniProt P56817); test: BACE1 binding assay (SPA-based radioligand binding); conditions: pH 4.5, Ki calculated from IC50
# Protocol: The binding assay was performed as SPA-based assay using a biotinylated form of human BACE1 recombinantly expressed and subsequently purified from Freestyle HEK293 cells. The binding assay was run in a 50 mM sodium acetate buffer, pH 4.5 containing 50 mM NaCl and 0.03% Tween-20 in white clear bottom 384 plates (Corning #3653). 10 nM (final concentration) radioligand ([^3H]—N-((1S,2R)-1-benzyl-3-cyclopropylamino-2-hydroxy-propyl)-5-(methanesulfonyl-methyl-amino)-N—((R)-1-phenyl-ethyl)-isophthalamide) (TRQ11569 purchased from GE Healthcare) was mixed with test compound at a given concentration, 6 nM (final concentration) human BACE1 and 25 μg Streptavidin coated PVT core SPA beads (RPNQ0007, GE Healthcare Life Sciences) in a total volume of 40 μl. Several concentrations of each test compound were tested in the assay for IC50 determination. The plates were incubated for one hour at room temperature and counted in a Wallac Trilux counter. Total and non-specific binding were determined using buffer and 1 μM (final concentration) of the high affinity BACE1 reference inhibitor (S)-6-[3-chloro-5-(5-prop-1-ynyl-pyridin-3-yl)-thiophen-2-yl]-2-imino-3,6-dimethyl-tetrahydro-pyrimidin-4-one, respectively. For each test compound, a IC50 value (the concentration mediating 50% inhibition of the specific binding of the radioligand) was determined from concentration-response curve and used to calculate the Ki from the equation Ki=IC50/(1+L/Kd), where L and Kd are the final concentration of the radioligand used in the assay and the dissociation constant of the radioligand, respectively. The Kd of the radioligand was determined from saturation binding experiments.
# [2] = Bioanalysis of brain and plasma samples (exposure, UPLC-MS/MS); assay type: in vivo; conditions: male, Sprague Dawley, po, rat, 3 hours post dose; for Kp at 3 h: brain/plasma, read-out: Brain/Plasma ratio; for concentration at 3 h: read-out: Exp
# Protocol: Young adult Male Sprague Dawley rats of approximately 250 g weight were purchased from Charles River and received 0-30 mg/kg of vehicle (10% HP betaCD+1M MeSO4, pH 2.5) or test compounds (dissolved in vehicle) only by oral gavage (p.o). The compounds are dosed at a volume of 5 ml/kg. Cohorts of 5-10 animals were established for each treatment condition.
# At T=180 minutes after initial dosing the animals were stunned and decapitated with a guillotine. Trunk-blood was sampled in EDTA coated tubes after decapitation of the animal. The blood was centrifuged at 2200 G at 4° C. for 15 minutes and the plasma was collected and frozen at −80° C. The blood was aliquoted for Aβ ELISA and DMPK analysis Immediately following sacrifice, the brain was extracted and split into 2 halves. The right hemibrains were snap frozen on dry ice and stored at −80° C. The left half was dissected; with the front forebrain taken for Aβ ELISA and the remainder used for DMPK analysis. These samples were also snap frozen on dry ice and stored at −80° C. until use for analysis.
# TC was determined in plasma and brain homogenate using UltraPerformance LC® (UPLC®) chromatography followed by tandem-MS (MS/MS) detection.
# Brain homogenate was prepared by homogenizing the brain 1:4 (v/v) with water:2-propanol:DMSO (50:30:20 v/v/v) followed by centrifugation and collection of the supernatant. Calibration standards and QC samples were prepared using a Hamilton robot. 150 μL of ISTD in acetonitrile (1 ng/mL ISTD) was added to 25 μL of calibration standards, QC samples and test samples (plasma and brain homogenate) using a Biomek robot. After centrifugation (6200 g, 4° C., 20 min) 100 μL supernatant from each sample was transferred to a new plate and mixed with 100 μL water with 0.1% formic acid using a Biomek robot (method file InVivo transfer). After a quick centrifugation (6200 g, 4° C., 5 min) the samples were placed in the auto-sampler.
# MS/MS detection was done with an Applied Biosystems Sciex API 4000 instrument in positive-ion electrospray ionisation mode. TC and ISTD were detected at a parent>daughter mass to charge ratio (m/z). Nitrogen was used for the nebulizer and collision gases. The peak area correlated linearly with the plasma and brain concentration of the analytes in the range of 1.00-1000 ng/mL plasma and 5.00-5000 ng/g brain (corrected for dilution). If the plasma/brain sample drug concentration was above 1000 ng/mL or 5000 ng/g, the sample was diluted appropriately in blank plasma/blank brain homogenate before analysis. […]
# [3] = system: P-gp (MDR1); test: MDCK-MDR1 assay (permeability/efflux); assay type: in vitro ADME; conditions: dog, Papp BA/Papp AB, 60-minute incubation, Pgp substrate when ≧2
# Protocol: The permeability of the test compounds was assessed in MDCK-MDR1 cells that were cultured to confluency (4-6 days) in a 96 transwell plate. Test compounds were diluted with the transport buffer (HBSS+1% BSA) to a concentration of 0.5 μM and applied to the apical or basolateral side of the cell monolayer. Permeation of the test compounds from A to B direction or B to A direction was determined in triplicate over a 60-minute incubation time at 37° C. and 5% CO2 with a relative humidity of 95%. Test compounds were quantified by LC-MS/MS analysis based on the peaks area ratios of analyte/IS in both the receiver and donor wells of the transwell plate.
# The apparent permeability coefficient Papp (cm/s) was calculated using the equation: Papp=(dCr/dt)×Vr/(A×C0)
# Where dCr/dt is the cumulative concentration of compound in the receiver chamber as a function of time (μM/s); Vr is the solution volume in the receiver chamber (0.05 mL on the apical side; 0.25 mL on the basolateral side); A is the surface area for the transport, i.e. 0.0804 cm^2 for the area of the monolayer; CO is the initial concentration in the donor chamber (μM).
# Compounds are classified Pgp substrates when efflux ratio (Papp BA/Papp AB) is ≧2.
# human BACE1, sequence (P56817 46-501): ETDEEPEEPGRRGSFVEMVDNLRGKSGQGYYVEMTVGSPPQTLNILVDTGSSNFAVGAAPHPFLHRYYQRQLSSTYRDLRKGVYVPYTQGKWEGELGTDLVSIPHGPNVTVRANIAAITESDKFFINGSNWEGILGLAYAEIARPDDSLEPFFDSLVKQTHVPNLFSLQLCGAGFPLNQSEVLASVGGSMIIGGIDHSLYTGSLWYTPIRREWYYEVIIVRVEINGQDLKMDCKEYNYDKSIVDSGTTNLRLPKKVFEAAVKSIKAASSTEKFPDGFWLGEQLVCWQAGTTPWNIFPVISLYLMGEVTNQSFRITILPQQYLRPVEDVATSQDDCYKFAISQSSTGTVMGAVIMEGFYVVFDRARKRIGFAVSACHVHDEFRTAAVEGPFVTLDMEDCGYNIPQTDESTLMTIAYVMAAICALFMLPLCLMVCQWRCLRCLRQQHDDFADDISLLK
Ki [1] [nM],Kp at 3 h ([2]; 10 mg/kg p.o.),Kp at 3 h ([2]; 30 mg/kg p.o.),"concentration at 3 h ([2]; brain, 10 mg/kg p.o.) [ng/g]","concentration at 3 h ([2]; brain, 30 mg/kg p.o.) [ng/g]","concentration at 3 h ([2]; plasma, 10 mg/kg p.o.) [ng/g]","concentration at 3 h ([2]; plasma, 30 mg/kg p.o.) [ng/g]","efflux ratio at 60 min, 0.5 μM [3]",SMILES
8.5,0.3,0.32,511,2280,1680,7060,1.22,"COc1cnc(C(=O)Nc2ccc(F)c([C@@]3(C(F)F)N=C(N)CCC3(F)F)c2)cn1 [Compound 3, (S)—N-(3-(6-amino-2-(difluoromethyl)-3,3-difluoro-2,3,4,5-tetrahydropyridin-2-yl)-4-fluorophenyl)-5-methoxypyrazine-2-carboxamide]"
6.7,0.28,0.29,187,959,660,3350,0.99,"COc1ccc(C(=O)Nc2ccc(F)c([C@@]3(C(F)F)N=C(N)CCC3(F)F)c2)nc1 [Compound 5, (S)—N-(3-(6-amino-2-(difluoromethyl)-3,3-difluoro-2,3,4,5-tetrahydropyridin-2-yl)-4-fluorophenyl)-5-methoxypicolinamide]"
